Experimental data published in ChEMBL document CHEMBL3507680, “University of Dundee, Gates Library screen for HepG2 cell viability”.

test: Human HepG2 cell viability assay in 384 well format; assay type: toxicity, cell-based; set-up: dose 125 nL, time 70.5 hour; concentration not given beside the values; conditions: HepG2 cells, read-out: Inhibition

Q: Which cytotoxicity at 70.5 h does the source give for `Cn1ccc(CN2CCC(CCc3ccc(O)cc3)CC2)cc1=O` here?
A: -9.59%

Q: For `O=C(Cc1csc(Cc2ccccn2)n1)NCCCN1CCCC1=O`, which cytotoxicity at 70.5 h is on record?
A: 32.1%

Q: With `CCc1nc(CNc2ccc(C(=O)N3CCSCC3)cc2C)no1` as the compound, how does the cytotoxicity at 70.5 h read?
A: -6.1%

Q: With `O=C(c1ccc(F)cc1F)N1C[C@@H](O)[C@H](N2CCOCC2)C1` as the compound, how does the cytotoxicity at 70.5 h read?
A: -2.76%

Q: For `Cn1nccc1C(=O)N1CCCC1c1[nH]ncc1C(N)=O` (stereo not drawn), which cytotoxicity at 70.5 h is on record?
A: -6.47%

Q: For `COc1ccc(OC)c2c(C)cc(N(C)CCO)nc12`, which cytotoxicity at 70.5 h is on record?
A: 16.9%

Q: For `O=C(NCCN1CCOC1=O)c1cc(-c2ccccc2)on1`, which cytotoxicity at 70.5 h is on record?
A: 33.3%

Q: For `O=S1(=O)CCC(N(CCc2ccc3c(c2)CCO3)C2CC2)C1` (stereo not drawn), which cytotoxicity at 70.5 h is on record?
A: -1.96%

Q: With `O=C(O)c1cccc(C2CCCN(S(=O)(=O)N3CCOCC3)C2)c1` (stereo not drawn) as the compound, how does the cytotoxicity at 70.5 h read?
A: -7.39%

Q: With `O=C1CCC[C@]2(CN(S(=O)(=O)C3CCCCC3)C[C@H]2c2cccnc2)N1` as the compound, how does the cytotoxicity at 70.5 h read?
A: -3.41%

Q: Which cytotoxicity at 70.5 h does the source give for `CN(C)CCn1ccnc1C1CCCN(c2ncc(Cl)cc2F)C1` (stereo not drawn) here?
A: -3.65%

Q: For `COCCCN(C)C1CCCN(Cc2noc(C3CC3)n2)C1` (stereo not drawn), which cytotoxicity at 70.5 h is on record?
A: 11.8%

Q: For `COc1cccc(O)c1CN1CCCC(Nc2cccc(F)c2)C1` (stereo not drawn), which cytotoxicity at 70.5 h is on record?
A: 0.789%

Q: Which cytotoxicity at 70.5 h does the source give for `Cn1ccc2c(C(=O)N3CCC4(CCOC4)C3)cccc21` (stereo not drawn) here?
A: 23.5%

Q: For `CCC(C)N(Cc1cccnc1)Cc1ccccc1Cn1cccn1` (stereo not drawn), which cytotoxicity at 70.5 h is on record?
A: -9.31%

Q: With `COc1ccccc1OCCNC(=O)NCc1nc(C)no1` as the compound, how does the cytotoxicity at 70.5 h read?
A: -6.75%

Q: For `O=C1Nc2ccccc2C12CCN(c1nccs1)CC2`, which cytotoxicity at 70.5 h is on record?
A: -3.17%

Q: With `COCC[C@]1(O)CCN(CC(=O)NCc2ccccc2C)C[C@H]1C` as the compound, how does the cytotoxicity at 70.5 h read?
A: -2.23%

Q: For `CC(=O)c1ccc(NC(=O)NCc2cccc(N(C)C)n2)cc1C`, which cytotoxicity at 70.5 h is on record?
A: -1.51%

Q: Which cytotoxicity at 70.5 h does the source give for `CCOc1cccc(C(=O)N(CCC#N)Cc2ccccn2)c1` here?
A: -0.366%

Q: For `N#Cc1ccccc1CN1CCCCC1Cn1cncn1` (stereo not drawn), which cytotoxicity at 70.5 h is on record?
A: -20%

Q: Which cytotoxicity at 70.5 h does the source give for `CC(C)N1CCN(C)CC(Cc2cc(N(C)C)ncn2)C1` (stereo not drawn) here?
A: -3.36%

Q: For `COc1cccc(N2CCN(C(=O)c3ccc(=O)n(C)c3)CC2)c1`, which cytotoxicity at 70.5 h is on record?
A: -3.95%

Q: Which cytotoxicity at 70.5 h does the source give for `Fc1cnc(N2CCC3(COCc4cnc(NCC5CC5)nc43)C2)nc1` (stereo not drawn) here?
A: -6.29%

Q: Which cytotoxicity at 70.5 h does the source give for `CCCn1ncnc1C(C)NC(=O)C1CCN(C(C)C)CC1` (stereo not drawn) here?
A: -4.07%

Q: Which cytotoxicity at 70.5 h does the source give for `Cn1ccnc1C(O)(CCNCc1ccc(Cl)o1)C(F)(F)F` (stereo not drawn) here?
A: -14.8%

Q: With `Cc1oc(-c2ccco2)nc1CC(=O)NCC(C)(C)N(C)C` as the compound, how does the cytotoxicity at 70.5 h read?
A: -8.24%

Q: Which cytotoxicity at 70.5 h does the source give for `NC(=O)c1ccc(OCC(=O)NC2CCc3c(F)cccc32)cc1` (stereo not drawn) here?
A: -5.14%

Q: For `CCSCc1ccnc(NC(=O)C2CCCO2)c1` (stereo not drawn), which cytotoxicity at 70.5 h is on record?
A: -2.71%

Q: Which cytotoxicity at 70.5 h does the source give for `CCc1ccc2c(C3CN(C(C)=O)C3)ncn2c1` here?
A: -3.55%

Q: For `CC(C)n1cc(CN2CCCN(C(=O)CN3CCCC3=O)CC2)cn1`, which cytotoxicity at 70.5 h is on record?
A: 58%

Q: With `CC1=C(CCN2CCCC(O)C2)C(C)(C)CCC1` (stereo not drawn) as the compound, how does the cytotoxicity at 70.5 h read?
A: 18.9%

Q: For `CCOCc1nc(-c2ccc(F)cc2Cl)n(C2CCN(C)CC2)n1`, which cytotoxicity at 70.5 h is on record?
A: -17.9%

Q: With `Cn1cncc1CN1CC[C@](C)(O)[C@@H](Oc2cccc(F)c2)C1` as the compound, how does the cytotoxicity at 70.5 h read?
A: 13.9%

Q: Which cytotoxicity at 70.5 h does the source give for `Cn1cc(CN2CC[C@]3(C[C@H](Oc4ccccn4)CO3)C2)cn1` here?
A: -6.32%

Q: For `O=C(CCc1nc(Cl)n[nH]1)N1C[C@H](CO)C[C@H](CN2CCCC2)C1`, which cytotoxicity at 70.5 h is on record?
A: -7.42%

Q: With `CCn1nccc1CNc1[nH]cnc2nc(C)nc1-2` as the compound, how does the cytotoxicity at 70.5 h read?
A: 27.9%

Q: With `Cc1ccc2c(c1)C1(CCNCC1)CC2OCC1CC1` (stereo not drawn) as the compound, how does the cytotoxicity at 70.5 h read?
A: -1.43%

Q: With `OC(CNc1ncnc2c1CCNCC2)C(F)(F)F` (stereo not drawn) as the compound, how does the cytotoxicity at 70.5 h read?
A: -4.22%

Q: Which cytotoxicity at 70.5 h does the source give for `O=c1c2cnc(N3CCCC3)nc2ccn1-c1cccc(F)c1` here?
A: -0.217%

Q: With `O=C(NCCCF)Nc1ccc2nc(N3CCOCC3)oc2c1` as the compound, how does the cytotoxicity at 70.5 h read?
A: 12.5%

Q: Which cytotoxicity at 70.5 h does the source give for `N#Cc1ccc(CN2CCN(C(=O)c3cc(C4CC4)[nH]n3)CC2)cc1` here?
A: 0.0729%

Q: Which cytotoxicity at 70.5 h does the source give for `O=C1CN(c2ccc(CNC(=O)Nc3nccs3)cc2)CCN1` here?
A: 1.2%

Q: With `CCn1cc(NC(=O)N2CCN(C(=O)Oc3ccccc3)CC2)cn1` as the compound, how does the cytotoxicity at 70.5 h read?
A: -4.12%

Q: Which cytotoxicity at 70.5 h does the source give for `CCOc1ccccc1C(C(=O)O)N(C)Cc1nnc(C)o1` (stereo not drawn) here?
A: -2.69%

Q: For `CCc1cc(C(=O)NCC2CCN(Cc3ccncc3)CC2)on1`, which cytotoxicity at 70.5 h is on record?
A: -9.67%

Q: Which cytotoxicity at 70.5 h does the source give for `CCN1CCC2(CC1)CC(NCc1ccncc1)c1ccccc1O2` (stereo not drawn) here?
A: -20.8%

Q: For `CN(C)C(=O)[C@H]1CO[C@H]2CCN(c3ncc(F)cn3)C[C@H]2C1`, which cytotoxicity at 70.5 h is on record?
A: -8.69%

Q: With `O=C1CN(CCCNC(=O)Nc2ccccn2)CCN1` as the compound, how does the cytotoxicity at 70.5 h read?
A: 1.68%

Q: Which cytotoxicity at 70.5 h does the source give for `Cc1ccc(N(CCC#N)C(=O)CCc2cscn2)cc1C` here?
A: -3.27%

Q: With `O=C(NCc1cccnc1)N1CCc2ncnc(C3CC3)c2CC1` as the compound, how does the cytotoxicity at 70.5 h read?
A: 5.6%

Q: Which cytotoxicity at 70.5 h does the source give for `O=C(CSc1ncccn1)N1C[C@H]2CC[C@@H]1CN(Cc1ccncc1)C2` here?
A: -0.441%

Q: With `O=C(NCc1ccc2c(c1)OCO2)N1CCCC2(C1)OCCO2` as the compound, how does the cytotoxicity at 70.5 h read?
A: -7.83%

Q: With `CCc1noc(C(C)N2CCN(Cc3cnc(C)cn3)CC2)n1` (stereo not drawn) as the compound, how does the cytotoxicity at 70.5 h read?
A: 16.3%

Q: For `CCOc1ncccc1CNC(=O)N1CCCC1c1cc(C)no1` (stereo not drawn), which cytotoxicity at 70.5 h is on record?
A: -12.6%

Q: For `CC(C)OCCSc1nnnn1C1CCOCC1`, which cytotoxicity at 70.5 h is on record?
A: -8.16%

Q: For `CCS(=O)(=O)CC(C)N(C)C(=O)COc1ccccc1C#N` (stereo not drawn), which cytotoxicity at 70.5 h is on record?
A: -15.4%

Q: With `CC(C)(C)c1nc(CNc2cc3c(cc2Cl)NC(=O)CO3)no1` as the compound, how does the cytotoxicity at 70.5 h read?
A: -7.93%

Q: For `COCc1ncn(Cc2nc(-c3ccco3)oc2C)n1`, which cytotoxicity at 70.5 h is on record?
A: 6.06%

Q: For `COCC(=O)N1C[C@H]2CN(Cc3cccc(F)c3)C(=O)[C@H]2C1`, which cytotoxicity at 70.5 h is on record?
A: 8.07%

Q: Which cytotoxicity at 70.5 h does the source give for `CN(C)c1ncccc1NC(=O)C1CN(Cc2ccccc2)CCO1` (stereo not drawn) here?
A: -2.14%

Q: With `CCCNC(=O)CCC(=O)Nc1ccc(-n2cncn2)c(F)c1` as the compound, how does the cytotoxicity at 70.5 h read?
A: 36%

Q: Which cytotoxicity at 70.5 h does the source give for `Cc1nccn1-c1ccc(N2CCC(NC(C)C(C)C)CC2)cc1` (stereo not drawn) here?
A: -2%

Q: Which cytotoxicity at 70.5 h does the source give for `CC(C)N(CCO)C(=O)C1CCC(=O)N(CCc2ccc(Cl)cc2)C1` (stereo not drawn) here?
A: -1.21%

Q: With `Cc1noc(OCc2ccc(C#N)cc2)n1` as the compound, how does the cytotoxicity at 70.5 h read?
A: -0.0296%

Q: With `CN(C(=O)CCc1nc(C2CC2)no1)c1cc(C#N)c2ccccc2n1` as the compound, how does the cytotoxicity at 70.5 h read?
A: 0.74%

Q: With `O=C1COC2(CCN(Cc3ccncc3)CC2)CN1` as the compound, how does the cytotoxicity at 70.5 h read?
A: -11.9%

Q: For `CCOCC(O)CN1CCN(C(=O)c2cccc(CC#N)c2)CC1` (stereo not drawn), which cytotoxicity at 70.5 h is on record?
A: -1.07%

Q: With `COc1c(Br)cccc1CCNC(=O)c1csnn1` as the compound, how does the cytotoxicity at 70.5 h read?
A: -11.9%

Q: Which cytotoxicity at 70.5 h does the source give for `CC(C)c1noc(C(C)N2CCC(c3nc4ccccc4[nH]3)CC2)n1` (stereo not drawn) here?
A: -7.42%

Q: Which cytotoxicity at 70.5 h does the source give for `COCC(=O)N1CCCC(c2nc(N)ncc2-c2cccc(F)c2)C1` (stereo not drawn) here?
A: 2.19%

Q: With `CC(=O)CCC(=O)N1CCC2(CC1)N=C(CCC(C)C)NC2=O` as the compound, how does the cytotoxicity at 70.5 h read?
A: -0.28%

Q: With `CC(C)c1noc(CS(=O)(=O)CC(=O)NCc2ccccc2)n1` as the compound, how does the cytotoxicity at 70.5 h read?
A: -9.16%

Q: With `O=C(c1cccc(S(=O)(=O)NCCCc2ccco2)c1)N1CCOCC1` as the compound, how does the cytotoxicity at 70.5 h read?
A: 3.78%

Q: With `Cc1nn(C)c(N(C)C)c1CNCc1ccnc(N2CCOCC2)c1` as the compound, how does the cytotoxicity at 70.5 h read?
A: -5.46%

Q: With `O=C(NCC(O)c1cccc(F)c1)c1sccc1OC(F)F` (stereo not drawn) as the compound, how does the cytotoxicity at 70.5 h read?
A: -3.42%

Q: For `CC1CCCN(CCNC(=O)c2scnc2Cl)C1` (stereo not drawn), which cytotoxicity at 70.5 h is on record?
A: -7.04%

Q: With `COc1c(CNC2CCc3cc(F)ccc32)c(C)nn1C` (stereo not drawn) as the compound, how does the cytotoxicity at 70.5 h read?
A: -15.1%

Q: With `Cc1nnsc1CN1C[C@@H]2CC[C@H](C1)N(Cc1ccccc1)C2` as the compound, how does the cytotoxicity at 70.5 h read?
A: 8.69%

Q: Which cytotoxicity at 70.5 h does the source give for `c1cnc(N2CCC3(CCCN(CC4CC4)C3)CC2)nc1` here?
A: -6.6%

Q: Which cytotoxicity at 70.5 h does the source give for `CCc1cnc(CNC(=O)N2CCCC(c3ncc[nH]3)C2)s1` (stereo not drawn) here?
A: -4.75%

Q: Which cytotoxicity at 70.5 h does the source give for `COc1cc(-c2cc(=O)[nH]cn2)cc(OC)c1OC` here?
A: -5.45%

Q: For `CCN(C)S(=O)(=O)NCC(O)c1c(Cl)cccc1Cl` (stereo not drawn), which cytotoxicity at 70.5 h is on record?
A: 18.4%
